Measured values published in PMC6572618, “Anti-Trypanosomal and Antimalarial Properties of Tetralone Derivatives and Structurally Related Benzocycloalkanones” (Medicina, 2019).
Read-outs that look alike come from different tables or passages of the source.

How the values were obtained:
Format in all cases: cell-based
[1] = system: 427 Trypanosoma brucei brucei trypomastigotes; assay: In vitro anti-trypanosomal assay (resazurin); conditions: 48 h; for % Viability at 20 µM (SD) T.b. brucei / viability at 20 µM: 20 µM compound, % parasite viability relative to untreated control; for IC50: three-fold serial dilutions from 100 µM, read-out: IC50 (µM) T. b. brucei; for viability at 20 µM: read-out: % Viability at 20 µM (SD) T.b. brucei
Protocol: The activity of the compounds against 427 Trypanosoma brucei brucei trypomastigotes was determined as previously described. Briefly, parasites were incubated in 96-well plates with 20 µM or three-fold serial dilutions (100 µM starting concentration) of test compounds in Iscove’s modified Dulbecco’s medium (IMDM) (Lonza, Basel, Switzerland) supplemented with 10% fetal calf serum, HMI-9 supplement, hypoxanthine, and penicillin/streptomycin at 37 °C in a 5% CO2 incubator. After 48 h, 20 µL of resazurin reagent (0.135 mg/mL resazurin in phosphate-buffered saline) was added to each well and the fluorescence (Ex560/Em590) read after 2–4 h in a Spectramax M3 plate reader (Molecular Devices, San Jose, CA, USA). The fluorescence readings were used to calculate % parasite viability relative to the readings obtained from the wells containing untreated control parasite cultures. The IC50 values were determined by plotting % viability vs. log(compound) and performing a non-linear regression using a GraphPad Prism (v. 5.02) (San Diego, CA, USA).
(§1) Thirty-five tetralone derivatives (see Figure 2) and six related benzocycloalkanones (see Figure 3) were evaluated in vitro against T. b. brucei for antitrypanosomal activity through the resazurin assay protocol. The compounds were also evaluated against the chloroquine-sensitive strain (3D7) of P. falciparum for antimalarial activity using pLDH assay and against the HeLa cell line for cytotoxicity evaluation using the resazurin assay protocol.

[2] = In vitro cytotoxicity assay (resazurin); conditions: human, 20 µM compound, 24 h, % cell viability relative to untreated control, read-out: % Viability at 20 µM (SD) HeLa Cell
Protocol: As previously described, HeLa cells (Cellonex, Johannesburg, South Africa) were seeded in 96-well plates at a density of 2 × 10^4 cells/well in Dulbecco’s modified Eagle’s medium (DMEM) (Lonza, Basel, Switzerland) supplemented with 10% fetal calf serum and antibiotics (penicillin/streptomycin/amphotericin B) and incubated overnight at 37 °C in a 5% CO2 incubator. Compounds were added to the cells at a final concentration of 20 µM, and incubation continued for 24 h. The cell viability in the wells was assessed by adding 20 µL of resazurin reagent (0.135 mg/mL resazurin in phosphate-buffered saline) and reading the fluorescence (Ex560/Em590) after an additional 2–4 h incubation. The fluorescence readings were converted to % cell viability relative to the average readings obtained from the untreated control wells.
as §1

[3] = system: chloroquine sensitive strain of P. falciparum (3D7); assay: In vitro antiplasmodial assay (parasite lactate dehydrogenase, pLDH); conditions: Plasmodium falciparum, 3D7, 48 h, read-out: % Viability at 20 µM (SD) 3D7
Protocol: An antimalarial evaluation was performed against the chloroquine sensitive strain of P. falciparum (3D7) using the parasite lactate dehydrogenase (pLDH) assay as previously reported. Parasites were seeded at 2% parasitemia and 1% hematocrit in 96 well plates and were incubated with 20 µM of the test compounds for 48 h in culture medium consisting of Rosell Park Memorial Institute (RPMI 1640; Lonza, Basel, Switzerland) containing 25 mM 4-(2-hydroxyethyl)-1-piperazineethanesulfonic acid (HEPES), supplemented with 0.5% (w/v) Albumax II, 22 mM glucose, 0.65 mM hypoxanthine, 0.05mg/mL gentamicin, and 1% (v/v) human erythrocytes, at 37 °C under an atmosphere of 5% CO2, 5% O2, and 90% N2. The parasite lactate dehydrogenase activity in the wells was determined using the colorimetric assay method of Makler et al.. The absorbance readings were converted to % parasite viability relative to the wells containing untreated parasites.
as §1

[4] = 20 µM compound, 48 h, P. falciparum 3D7, % parasite viability relative to untreated parasites

SMILES	% Viability at 20 µM (SD) T.b. brucei [1]	IC50 ([1]; Trypanosoma brucei) [µM]	viability at 24 h, 20 µM [2] [%]	viability at 20 µM [3] [%]	viability at 20 µM ([1]; Trypanosoma brucei) [%]	IC50 [1] [µM]	viability at 24 h, 20 µM ([2]; HeLa cells) [%]	viability at 20 µM [3, 4] [%]
O=C1/C(=C/c2ccc(Cl)cc2)COc2ccccc21 [Compound 38]	0.4 (0.2) %	0.4	75	98	–	–	–	–
O=C1/C(=C/c2ccccc2)CCc2cc(O)ccc21 [Compound 7]	0.6 (0.2) %	0.4	–	–	0.66	0.46	54	89
Cc1ccc(/C=C2\CCc3ccc(O)cc3C2=O)cc1 [Compound 20]	–	5.3	–	–	-0.4	–	69	116
N#Cc1cccc(/C=C2\CCc3ccccc3C2=O)c1 [Compound 1]	–	2.3	–	–	0.06	–	87	113
COc1ccc2c(c1)C(=O)/C(=C/c1ccsc1)CC2 [Compound 35]	–	2.6	–	–	22	–	122	86
